Data taken from publication PMC8212708 (Clinical and Translational Science, 2021).

target: T1, human glucose transporter-1 (hGLUT-1) (Homo sapiens, UniProt P11166); experiment: inhibition of [3H]2-DG; assay type: cell-based; conditions: FaDu, read-out: % inhibition at 25 μM
T1 sequence (P11166 1-492): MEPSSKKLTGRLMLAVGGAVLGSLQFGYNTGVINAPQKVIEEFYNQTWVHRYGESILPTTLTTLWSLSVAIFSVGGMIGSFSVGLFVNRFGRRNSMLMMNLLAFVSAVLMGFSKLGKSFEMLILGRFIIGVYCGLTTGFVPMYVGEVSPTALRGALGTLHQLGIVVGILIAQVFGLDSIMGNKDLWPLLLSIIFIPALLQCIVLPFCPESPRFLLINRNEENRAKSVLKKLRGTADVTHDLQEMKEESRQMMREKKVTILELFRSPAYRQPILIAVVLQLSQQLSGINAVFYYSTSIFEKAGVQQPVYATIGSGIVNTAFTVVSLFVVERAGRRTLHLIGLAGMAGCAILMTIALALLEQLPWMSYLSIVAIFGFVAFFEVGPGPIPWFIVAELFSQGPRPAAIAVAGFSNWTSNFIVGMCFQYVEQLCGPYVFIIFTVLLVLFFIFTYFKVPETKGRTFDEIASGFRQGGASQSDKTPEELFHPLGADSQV

| inhibition at 25 µM [%] | Structure (SMILES) |
| --- | --- |
| 80 to 90 | C#Cc1cccc(Nc2ncnc3cc(OC)c(OCCCCCCC(=O)NO)cc23)c1 [CUDC-101] |
| > 50 | CC(C)c1cc(-c2n[nH]c(=O)n2-c2ccc3c(ccn3C)c2)c(O)cc1O [Ganetespib] |
| > 50 | O=c1c(-c2ccc(O)cc2)coc2cc(O)cc(O)c12 [genistein] |
